This is an account of results in paper PMC9927415, “Tyrosine Kinase Inhibitors Display Potent Activity against Cryptosporidium parvum” (Microbiology Spectrum, 2022).

What all share (test): KINOMEscan competitive binding, whole panel
In assay [1] the target is T1, panel of 203 kinases (Homo sapiens, UniProt Q16584).
T1 construct: purchased DiscoverX (KINOMEscan)
The note with it: 10 µM, n=1; kinase MLK3; read-out: Percent inhibition MLK3. A digest of the protocol: (§1)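 T7 phage-fused kinases; compound displaces immobilized ATP-site probe ligand; bead-bound kinase quantified; % inhibition reported.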

Assay [2] deals with T2, panel of 203 kinases (Homo sapiens, UniProt O43293).
T2 construct: purchased DiscoverX (KINOMEscan)
Conditions: 10 µM, n=1; kinase DAPK3; read-out: Percent inhibition DAPK3. A digest of the protocol:
as §1

Assay [3] concerns the target T3, panel of 203 kinases (Homo sapiens, UniProt Q9UQB9).
T3 construct: purchased DiscoverX (KINOMEscan)
T3 sequence (Q9UQB9 1-309): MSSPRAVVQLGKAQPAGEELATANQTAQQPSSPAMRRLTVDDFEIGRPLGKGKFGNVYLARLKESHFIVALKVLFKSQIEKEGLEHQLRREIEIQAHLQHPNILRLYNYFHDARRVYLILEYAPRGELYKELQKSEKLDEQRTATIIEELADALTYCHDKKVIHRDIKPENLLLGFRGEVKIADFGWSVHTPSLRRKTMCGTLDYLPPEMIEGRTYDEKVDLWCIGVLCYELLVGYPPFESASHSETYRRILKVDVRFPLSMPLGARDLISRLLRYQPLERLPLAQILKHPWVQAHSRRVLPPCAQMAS
The note with it: 10 µM, n=1; kinase AURKC; read-out: Percent inhibition AURKC. A digest of the protocol: as §1

Assay [4] deals with T4, panel of 203 kinases (Homo sapiens, UniProt Q92918).
T4 construct: purchased DiscoverX (KINOMEscan)
The note with it: 10 µM, n=1; kinase MAP4K1; read-out: Percent inhibition MAP4K1. A digest of the protocol:
as §1

The target of assay [5] is T5, panel of 203 kinases (Homo sapiens, UniProt P36896).
T5 construct: purchased DiscoverX (KINOMEscan)
T5 sequence (P36896 24-505): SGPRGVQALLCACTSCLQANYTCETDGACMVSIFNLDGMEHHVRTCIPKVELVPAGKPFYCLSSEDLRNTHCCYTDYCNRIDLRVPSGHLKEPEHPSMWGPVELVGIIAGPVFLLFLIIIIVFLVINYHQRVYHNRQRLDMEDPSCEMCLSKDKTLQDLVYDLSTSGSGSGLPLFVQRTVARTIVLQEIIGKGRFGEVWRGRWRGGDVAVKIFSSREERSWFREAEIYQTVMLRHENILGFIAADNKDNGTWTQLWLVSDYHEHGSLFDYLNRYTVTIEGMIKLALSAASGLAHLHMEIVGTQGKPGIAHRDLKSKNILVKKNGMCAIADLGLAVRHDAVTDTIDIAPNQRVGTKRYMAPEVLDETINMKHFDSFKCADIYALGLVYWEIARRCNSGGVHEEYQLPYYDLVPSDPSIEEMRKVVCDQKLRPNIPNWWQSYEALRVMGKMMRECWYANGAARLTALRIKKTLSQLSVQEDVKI
The note with it: 10 µM, n=1; kinase ACVR1B; read-out: Percent inhibition ACVR1B. A digest of the protocol:
as §1

The target in assay [6] is T6, panel of 203 kinases (Homo sapiens, UniProt P06213).
T6 construct: purchased DiscoverX (KINOMEscan)
Conditions: 10 µM, n=1; kinase INSR; read-out: Percent inhibition INSR. A digest of the protocol:
as §1

Assay [7] concerns the target T7, panel of 203 kinases (Homo sapiens, UniProt P54762).
T7 construct: purchased DiscoverX (KINOMEscan)
T7 sequence (P54762 18-984): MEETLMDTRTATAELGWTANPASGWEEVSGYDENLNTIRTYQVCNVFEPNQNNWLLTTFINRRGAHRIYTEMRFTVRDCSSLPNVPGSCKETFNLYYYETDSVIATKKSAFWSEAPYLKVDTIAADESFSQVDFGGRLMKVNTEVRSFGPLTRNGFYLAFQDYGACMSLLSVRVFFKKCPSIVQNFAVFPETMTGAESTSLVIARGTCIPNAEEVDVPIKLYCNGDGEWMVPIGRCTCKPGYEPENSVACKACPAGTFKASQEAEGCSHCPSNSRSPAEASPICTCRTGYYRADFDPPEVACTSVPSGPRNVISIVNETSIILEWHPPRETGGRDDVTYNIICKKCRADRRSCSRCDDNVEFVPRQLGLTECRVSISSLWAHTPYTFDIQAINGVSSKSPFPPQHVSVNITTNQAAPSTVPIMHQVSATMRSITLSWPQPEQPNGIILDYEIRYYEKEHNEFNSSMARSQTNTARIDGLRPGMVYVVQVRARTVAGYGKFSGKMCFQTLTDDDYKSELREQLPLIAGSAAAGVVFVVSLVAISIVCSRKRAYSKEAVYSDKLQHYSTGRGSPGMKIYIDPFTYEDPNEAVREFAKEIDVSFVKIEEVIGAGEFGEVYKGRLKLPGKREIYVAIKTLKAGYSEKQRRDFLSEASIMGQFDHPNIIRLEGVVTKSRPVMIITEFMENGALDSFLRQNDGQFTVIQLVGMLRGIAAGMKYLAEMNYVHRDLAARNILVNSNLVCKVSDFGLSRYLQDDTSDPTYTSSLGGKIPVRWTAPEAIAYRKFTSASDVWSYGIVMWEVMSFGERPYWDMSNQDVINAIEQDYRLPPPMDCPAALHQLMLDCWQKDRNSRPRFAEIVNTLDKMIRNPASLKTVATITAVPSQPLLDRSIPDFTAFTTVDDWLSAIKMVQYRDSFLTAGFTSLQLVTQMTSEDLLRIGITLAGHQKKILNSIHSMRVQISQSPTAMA
The note with it: 10 µM, n=1; kinase EPHB1; read-out: Percent inhibition EPHB1. A digest of the protocol: as §1

The target in assay [8] is T8, panel of 203 kinases (Homo sapiens, UniProt Q9HBH9).
T8 construct: purchased DiscoverX (KINOMEscan)
Conditions: 10 µM, n=1; kinase MKNK2; read-out: Percent inhibition MKNK2. A digest of the protocol: as §1

Assay [9] deals with T9, panel of 203 kinases (Homo sapiens, UniProt Q14012).
T9 construct: purchased DiscoverX (KINOMEscan)
Conditions: 10 µM, n=1; kinase CAMK1; read-out: Percent inhibition CAMK1. A digest of the protocol: as §1

In assay [10] the target is T10, panel of 203 kinases (Homo sapiens, UniProt Q13555).
T10 construct: purchased DiscoverX (KINOMEscan)
The note with it: 10 µM, n=1; kinase CAMK2G; read-out: Percent inhibition CAMK2G. A digest of the protocol: as §1

In assay [11] the target is T11, panel of 203 kinases (Homo sapiens, UniProt Q13557).
T11 construct: purchased DiscoverX (KINOMEscan)
Conditions: 10 µM, n=1; kinase CAMK2D; read-out: Percent inhibition CAMK2D. A digest of the protocol:
as §1

For assay [12], the target named is T12, panel of 203 kinases (Homo sapiens, UniProt Q13131).
T12 construct: purchased DiscoverX (KINOMEscan)
Conditions: 10 µM, n=1; kinase AMPK-alpha1; read-out: Percent inhibition AMPK-alpha1. A digest of the protocol:
as §1

The structures appear in SMILES notation.

T10 sequence (Q13555 whole entry): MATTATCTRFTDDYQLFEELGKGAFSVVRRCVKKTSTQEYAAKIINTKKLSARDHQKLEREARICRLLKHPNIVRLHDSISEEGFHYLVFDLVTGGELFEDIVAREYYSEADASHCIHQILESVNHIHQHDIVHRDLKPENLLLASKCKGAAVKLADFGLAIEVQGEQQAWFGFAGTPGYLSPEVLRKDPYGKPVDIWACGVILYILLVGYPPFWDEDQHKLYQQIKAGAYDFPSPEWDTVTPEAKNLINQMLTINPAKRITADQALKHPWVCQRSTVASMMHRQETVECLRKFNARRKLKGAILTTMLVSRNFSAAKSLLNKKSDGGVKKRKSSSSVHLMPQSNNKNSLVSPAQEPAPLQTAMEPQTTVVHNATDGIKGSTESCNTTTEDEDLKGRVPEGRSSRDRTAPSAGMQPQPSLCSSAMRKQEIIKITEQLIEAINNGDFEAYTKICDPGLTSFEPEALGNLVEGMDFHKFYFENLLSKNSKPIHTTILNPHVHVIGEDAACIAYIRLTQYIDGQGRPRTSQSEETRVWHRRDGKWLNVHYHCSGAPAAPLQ
T6 sequence (P06213 28-1382): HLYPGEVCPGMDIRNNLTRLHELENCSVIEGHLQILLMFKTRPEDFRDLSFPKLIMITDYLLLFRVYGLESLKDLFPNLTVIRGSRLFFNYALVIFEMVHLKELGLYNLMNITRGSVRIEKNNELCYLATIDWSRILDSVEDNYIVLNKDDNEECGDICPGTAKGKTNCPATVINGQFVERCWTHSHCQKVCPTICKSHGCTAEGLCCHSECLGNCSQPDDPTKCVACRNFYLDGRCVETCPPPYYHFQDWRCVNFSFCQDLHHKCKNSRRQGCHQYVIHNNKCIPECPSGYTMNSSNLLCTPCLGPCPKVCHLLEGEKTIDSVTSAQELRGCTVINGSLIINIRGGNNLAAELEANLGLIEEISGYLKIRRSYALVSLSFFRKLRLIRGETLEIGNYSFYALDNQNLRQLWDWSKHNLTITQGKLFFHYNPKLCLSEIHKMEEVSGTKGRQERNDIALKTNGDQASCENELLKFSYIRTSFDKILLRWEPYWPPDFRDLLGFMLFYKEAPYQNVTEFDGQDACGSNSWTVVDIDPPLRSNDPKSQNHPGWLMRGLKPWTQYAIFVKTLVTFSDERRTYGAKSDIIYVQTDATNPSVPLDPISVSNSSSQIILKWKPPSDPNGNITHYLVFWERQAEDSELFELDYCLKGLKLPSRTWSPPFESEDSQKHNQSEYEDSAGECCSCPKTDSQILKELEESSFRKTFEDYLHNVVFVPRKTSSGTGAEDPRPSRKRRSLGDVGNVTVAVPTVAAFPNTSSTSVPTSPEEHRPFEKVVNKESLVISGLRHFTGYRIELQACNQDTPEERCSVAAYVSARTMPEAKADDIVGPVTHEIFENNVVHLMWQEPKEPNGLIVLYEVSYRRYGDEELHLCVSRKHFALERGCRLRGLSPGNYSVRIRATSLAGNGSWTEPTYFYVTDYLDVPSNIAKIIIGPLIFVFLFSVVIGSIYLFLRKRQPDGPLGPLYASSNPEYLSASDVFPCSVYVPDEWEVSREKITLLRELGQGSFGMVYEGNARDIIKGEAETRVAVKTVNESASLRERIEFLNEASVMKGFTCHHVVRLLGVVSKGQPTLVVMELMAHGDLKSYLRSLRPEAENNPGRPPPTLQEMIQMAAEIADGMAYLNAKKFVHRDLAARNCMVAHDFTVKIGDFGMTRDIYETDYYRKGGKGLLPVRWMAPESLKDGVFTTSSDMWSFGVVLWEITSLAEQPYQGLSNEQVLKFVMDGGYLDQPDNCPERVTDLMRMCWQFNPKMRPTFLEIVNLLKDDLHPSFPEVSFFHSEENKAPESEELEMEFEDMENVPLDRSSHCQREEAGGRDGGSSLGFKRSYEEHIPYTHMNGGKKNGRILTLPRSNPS
T9 sequence (Q14012 whole entry): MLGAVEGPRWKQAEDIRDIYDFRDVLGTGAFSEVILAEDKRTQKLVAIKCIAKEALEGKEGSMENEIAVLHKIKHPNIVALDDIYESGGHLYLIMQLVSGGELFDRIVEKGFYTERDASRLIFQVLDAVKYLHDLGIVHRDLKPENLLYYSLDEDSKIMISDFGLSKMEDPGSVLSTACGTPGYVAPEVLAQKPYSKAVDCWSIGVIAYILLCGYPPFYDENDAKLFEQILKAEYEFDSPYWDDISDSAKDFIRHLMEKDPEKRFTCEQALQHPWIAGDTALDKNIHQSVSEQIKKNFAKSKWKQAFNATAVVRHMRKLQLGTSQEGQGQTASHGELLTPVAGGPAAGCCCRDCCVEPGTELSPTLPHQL
T12 sequence (Q13131 whole entry): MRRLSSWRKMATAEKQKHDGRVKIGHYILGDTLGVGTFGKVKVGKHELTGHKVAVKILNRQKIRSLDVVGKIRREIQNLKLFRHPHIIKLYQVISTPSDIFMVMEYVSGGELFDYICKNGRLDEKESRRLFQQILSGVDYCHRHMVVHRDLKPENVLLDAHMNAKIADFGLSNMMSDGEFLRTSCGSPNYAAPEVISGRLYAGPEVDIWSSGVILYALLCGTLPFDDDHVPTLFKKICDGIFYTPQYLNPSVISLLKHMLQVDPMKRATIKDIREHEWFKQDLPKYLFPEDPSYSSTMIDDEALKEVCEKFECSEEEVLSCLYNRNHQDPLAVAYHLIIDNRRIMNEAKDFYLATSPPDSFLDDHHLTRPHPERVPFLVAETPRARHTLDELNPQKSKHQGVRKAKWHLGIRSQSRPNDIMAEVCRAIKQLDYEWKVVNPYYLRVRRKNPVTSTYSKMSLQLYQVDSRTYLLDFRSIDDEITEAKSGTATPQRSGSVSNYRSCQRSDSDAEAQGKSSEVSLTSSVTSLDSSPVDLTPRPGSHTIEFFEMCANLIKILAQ
T4 sequence (Q92918 whole entry): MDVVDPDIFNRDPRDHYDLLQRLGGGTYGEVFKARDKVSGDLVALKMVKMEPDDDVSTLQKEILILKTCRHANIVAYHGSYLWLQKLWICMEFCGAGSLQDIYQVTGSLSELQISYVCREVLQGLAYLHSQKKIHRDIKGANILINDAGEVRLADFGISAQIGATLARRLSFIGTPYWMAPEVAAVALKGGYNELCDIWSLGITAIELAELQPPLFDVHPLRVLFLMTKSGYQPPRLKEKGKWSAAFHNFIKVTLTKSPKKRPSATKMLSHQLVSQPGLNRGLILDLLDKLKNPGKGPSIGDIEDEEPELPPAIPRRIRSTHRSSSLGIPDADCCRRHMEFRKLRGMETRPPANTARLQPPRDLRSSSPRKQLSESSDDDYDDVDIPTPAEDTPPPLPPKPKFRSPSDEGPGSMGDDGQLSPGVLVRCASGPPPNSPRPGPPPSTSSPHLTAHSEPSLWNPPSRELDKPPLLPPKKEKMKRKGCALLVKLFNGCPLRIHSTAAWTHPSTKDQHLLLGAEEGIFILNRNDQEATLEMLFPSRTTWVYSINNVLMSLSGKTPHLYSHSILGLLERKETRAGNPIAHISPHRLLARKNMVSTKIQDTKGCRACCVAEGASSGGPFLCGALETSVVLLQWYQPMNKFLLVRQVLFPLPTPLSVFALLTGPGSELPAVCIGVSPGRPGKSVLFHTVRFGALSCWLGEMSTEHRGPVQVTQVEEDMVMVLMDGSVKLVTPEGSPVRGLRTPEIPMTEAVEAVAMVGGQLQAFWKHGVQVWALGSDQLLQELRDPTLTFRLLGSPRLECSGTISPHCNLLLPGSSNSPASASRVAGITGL
T8 sequence (Q9HBH9 whole entry): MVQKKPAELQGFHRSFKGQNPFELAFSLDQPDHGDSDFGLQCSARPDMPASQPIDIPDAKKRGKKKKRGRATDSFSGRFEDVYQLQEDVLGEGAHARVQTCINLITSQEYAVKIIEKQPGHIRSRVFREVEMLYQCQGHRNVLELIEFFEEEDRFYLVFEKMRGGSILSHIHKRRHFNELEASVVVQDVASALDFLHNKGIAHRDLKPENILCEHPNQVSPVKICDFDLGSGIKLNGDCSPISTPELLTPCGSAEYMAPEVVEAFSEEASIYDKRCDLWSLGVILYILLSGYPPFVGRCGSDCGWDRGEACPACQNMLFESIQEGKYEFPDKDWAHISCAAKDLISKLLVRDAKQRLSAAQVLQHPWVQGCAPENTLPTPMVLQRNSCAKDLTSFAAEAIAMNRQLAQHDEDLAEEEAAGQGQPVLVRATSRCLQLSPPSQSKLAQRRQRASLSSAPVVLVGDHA
T11 sequence (Q13557 whole entry): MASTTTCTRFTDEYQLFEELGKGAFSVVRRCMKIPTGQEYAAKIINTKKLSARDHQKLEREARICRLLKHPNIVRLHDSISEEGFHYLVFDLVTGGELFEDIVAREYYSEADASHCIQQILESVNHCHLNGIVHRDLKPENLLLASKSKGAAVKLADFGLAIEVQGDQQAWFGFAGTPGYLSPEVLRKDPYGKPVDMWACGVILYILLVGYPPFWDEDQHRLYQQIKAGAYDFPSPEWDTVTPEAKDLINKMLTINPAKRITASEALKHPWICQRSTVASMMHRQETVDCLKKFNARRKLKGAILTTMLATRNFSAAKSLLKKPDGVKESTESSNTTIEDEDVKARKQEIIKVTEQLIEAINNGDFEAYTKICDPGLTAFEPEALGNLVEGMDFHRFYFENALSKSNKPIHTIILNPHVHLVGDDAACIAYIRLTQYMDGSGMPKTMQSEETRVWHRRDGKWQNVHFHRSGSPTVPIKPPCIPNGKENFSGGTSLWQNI

With `COc1cc(Nc2nccc(-c3sc(N)nc3-c3cccc(NC(=O)c4c(F)cccc4F)c3)n2)cc(OC)c1OC` [Compound 7], the inhibition (in general, the percentage by which the read-out fell short of the control) at 10 µM on panel of 203 kinases [1] came to 99.8%; at panel of 203 kinases [2] it was 0%; on panel of 203 kinases [3], 85.7%; at panel of 203 kinases [4], 96.3%; on panel of 203 kinases [5] it was 74.9%; at panel of 203 kinases [6] it was 97.3%. The inhibition at 10 µM came out at 100% on panel of 203 kinases [7]; 100% at panel of 203 kinases [8]; 91.5% on panel of 203 kinases [9]; 0% on panel of 203 kinases [10]; 0% at panel of 203 kinases [11]; 98.4% at panel of 203 kinases [12].
